Results taken from PMC12649549, “Sequence Permutation Generated Lysine and Tryptophan-Rich Antimicrobial Peptides with Enhanced Therapeutic Index” (Antibiotics, 2025).
Like-named read-outs stand apart in the source and are kept apart here.

Columns and labels:
S. aureus ATCC 33592 = tested on: S. aureus ATCC 33592
Method in brief: (§1)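 Salt and pH tolerance was assessed by determining MICs in LYM medium containing 50–300 mM NaCl, 0.5–2.5 mM MgCl2, or at pH 4.5–6.5, alongside MH broth. The inoculum was 5 × 10^5 CFU/mL.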

S. aureus ATCC 33591 = tested on: S. aureus ATCC 33591
Method in brief: as §1

S. aureus ATCC 33593 = tested on: S. aureus ATCC 33593
Method in brief: as §1

[1] = tested on: Pseudomonas aeruginosa Migula (ATCC 27853)
Method in brief: as §1

[2] = tested on: Both Gram-positive and -negative bacteria; experiment: Geometric mean MIC, therapeutic index and fold changes of MIC, whole panel of strains; format: cell-based; details: for GM G−/+ (geometric mean of the MIC values): Both Gram-positive and -negative bacteria, MH broth, MIC >50 µg/mL counted as 100 µg/mL; for Therapeutic Index (TI) G−/+: HC10/GM, both Gram-positive and -negative bacteria
Method in brief: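 Therapeutic index taken as the ratio of HC10 on human erythrocytes to geometric mean MIC. MICs from CLSI broth microdilution with peptides at 50 down to 0.78 µg/mL, inoculum 5 × 10^5 CFU/mL, in MH or modified LYM broth; triplicate independent experiments.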

[3] = LYM broth, 0 mM NaCl, 16 h, 37 °C
[4] = LYM broth, 50 mM NaCl, 16 h, 37 °C
[5] = LYM broth, 100 mM NaCl, 16 h, 37 °C
[6] = LYM broth, 200 mM (NaCl), 16 h, 37 °C
[7] = LYM broth, 300 mM (NaCl), 16 h, 37 °C
[8] = MH broth, 5 × 10^5 CFU/mL, 16 h, 37 °C, repeated three times

Ac-RKWLKWLAKKKKW-NH2 [Peptide W5K03]
MIC (S. aureus ATCC 33592; [3]): 25 µg/mL | MIC (S. aureus ATCC 33592; LYM broth, 0.5 mM MgCl2): 25 µg/mL | MIC (S. aureus ATCC 33592; LYM broth, 1.5 mM MgCl2): 25 µg/mL | MIC (S. aureus ATCC 33592; LYM broth, 2.5 mM MgCl2): 25 µg/mL | MIC (S. aureus ATCC 33592; [4]): 25 µg/mL | MIC (S. aureus ATCC 33592; [5]): 50 µg/mL | MIC (S. aureus ATCC 33592; [6]): >50 µg/mL | MIC (S. aureus ATCC 33592; [7]): >50 µg/mL | MIC (S. aureus ATCC 33592; LYM broth, pH 4.5): 25 µg/mL | MIC (S. aureus ATCC 33592; LYM broth, pH 5.5): 12.5 µg/mL | MIC (S. aureus ATCC 33592; LYM broth, pH 6.5): 12.5 µg/mL | MIC (S. aureus ATCC 33592; [8]): >50 µg/mL | MIC (S. aureus ATCC 33591; [3]): 25 µg/mL | MIC (S. aureus ATCC 33591; LYM broth, 0.5 mM MgCl2): 25 µg/mL | MIC (S. aureus ATCC 33591; LYM broth, 1.5 mM MgCl2): 25 µg/mL | MIC (S. aureus ATCC 33591; LYM broth, 2.5 mM MgCl2): 50 µg/mL | MIC (S. aureus ATCC 33591; [4]): 50 µg/mL | MIC (S. aureus ATCC 33591; [5]): 50 µg/mL | MIC (S. aureus ATCC 33591; [6]): >50 µg/mL | MIC (S. aureus ATCC 33591; [7]): >50 µg/mL | MIC (S. aureus ATCC 33591; LYM broth, pH 4.5): 25 µg/mL | MIC (S. aureus ATCC 33591; LYM broth, pH 5.5): 25 µg/mL | MIC (S. aureus ATCC 33591; LYM broth, pH 6.5): 12.5 µg/mL | MIC (S. aureus ATCC 33591; [8]): >50 µg/mL | MIC (S. aureus ATCC 33593; [3]): 25 µg/mL | MIC (S. aureus ATCC 33593; LYM broth, 0.5 mM MgCl2): 25 µg/mL | MIC (S. aureus ATCC 33593; LYM broth, 1.5 mM MgCl2): 25 µg/mL | MIC (S. aureus ATCC 33593; LYM broth, 2.5 mM MgCl2): 50 µg/mL | MIC (S. aureus ATCC 33593; [4]): 25 µg/mL | MIC (S. aureus ATCC 33593; [5]): 50 µg/mL | MIC (S. aureus ATCC 33593; [6]): >50 µg/mL | MIC (S. aureus ATCC 33593; [7]): >50 µg/mL | MIC (S. aureus ATCC 33593; LYM broth, pH 4.5): 25 µg/mL | MIC (S. aureus ATCC 33593; LYM broth, pH 5.5): 25 µg/mL | MIC (S. aureus ATCC 33593; LYM broth, pH 6.5): 12.5 µg/mL | MIC (S. aureus ATCC 33593; [8]): >50 µg/mL | MIC [1, 3]: 6.25 µg/mL | MIC ([1]; LYM broth, 0.5 mM MgCl2): 6.25 µg/mL | MIC ([1]; LYM broth, 1.5 mM MgCl2): 12.5 µg/mL | MIC ([1]; LYM broth, 2.5 mM MgCl2): 12.5 µg/mL | MIC [1, 4]: 12.5 µg/mL | MIC [1, 5]: 25 µg/mL | MIC [1, 6]: 25 µg/mL | MIC [1, 7]: >50 µg/mL | MIC ([1]; LYM broth, pH 4.5): 12.5 µg/mL | MIC ([1]; LYM broth, pH 5.5): 6.25 µg/mL | MIC ([1]; LYM broth, pH 6.5): 3.13 µg/mL | MIC [1, 8]: 50 µg/mL | GM G−/+ (geometric mean of the MIC values) [2]: 33.0 µg/mL | Therapeutic Index (TI) G−/+ [2]: 3.3

Ac-WLAKKKKWRKWLK-NH2 [Peptide W5K08]
MIC (S. aureus ATCC 33592; [3]): 25 µg/mL | MIC (S. aureus ATCC 33592; LYM broth, 0.5 mM MgCl2): 25 µg/mL | MIC (S. aureus ATCC 33592; LYM broth, 1.5 mM MgCl2): 25 µg/mL | MIC (S. aureus ATCC 33592; LYM broth, 2.5 mM MgCl2): 50 µg/mL | MIC (S. aureus ATCC 33592; [4]): 50 µg/mL | MIC (S. aureus ATCC 33592; [5]): 50 µg/mL | MIC (S. aureus ATCC 33592; [6]): >50 µg/mL | MIC (S. aureus ATCC 33592; [7]): >50 µg/mL | MIC (S. aureus ATCC 33592; LYM broth, pH 4.5): 25 µg/mL | MIC (S. aureus ATCC 33592; LYM broth, pH 5.5): 25 µg/mL | MIC (S. aureus ATCC 33592; LYM broth, pH 6.5): 12.5 µg/mL | MIC (S. aureus ATCC 33592; [8]): >50 µg/mL | MIC (S. aureus ATCC 33591; [3]): 25 µg/mL | MIC (S. aureus ATCC 33591; LYM broth, 0.5 mM MgCl2): 25 µg/mL | MIC (S. aureus ATCC 33591; LYM broth, 1.5 mM MgCl2): 50 µg/mL | MIC (S. aureus ATCC 33591; LYM broth, 2.5 mM MgCl2): 50 µg/mL | MIC (S. aureus ATCC 33591; [4]): 50 µg/mL | MIC (S. aureus ATCC 33591; [5]): 50 µg/mL | MIC (S. aureus ATCC 33591; [6]): 50 µg/mL | MIC (S. aureus ATCC 33591; [7]): >50 µg/mL | MIC (S. aureus ATCC 33591; LYM broth, pH 4.5): 25 µg/mL | MIC (S. aureus ATCC 33591; LYM broth, pH 5.5): 25 µg/mL | MIC (S. aureus ATCC 33591; LYM broth, pH 6.5): 12.5 µg/mL | MIC (S. aureus ATCC 33591; [8]): >50 µg/mL | MIC (S. aureus ATCC 33593; [3]): 25 µg/mL | MIC (S. aureus ATCC 33593; LYM broth, 0.5 mM MgCl2): 25 µg/mL | MIC (S. aureus ATCC 33593; LYM broth, 1.5 mM MgCl2): 25 µg/mL | MIC (S. aureus ATCC 33593; LYM broth, 2.5 mM MgCl2): 50 µg/mL | MIC (S. aureus ATCC 33593; [4]): 50 µg/mL | MIC (S. aureus ATCC 33593; [5]): 50 µg/mL | MIC (S. aureus ATCC 33593; [6]): >50 µg/mL | MIC (S. aureus ATCC 33593; [7]): >50 µg/mL | MIC (S. aureus ATCC 33593; LYM broth, pH 4.5): 25 µg/mL | MIC (S. aureus ATCC 33593; LYM broth, pH 5.5): 12.5 µg/mL | MIC (S. aureus ATCC 33593; LYM broth, pH 6.5): 12.5 µg/mL | MIC (S. aureus ATCC 33593; [8]): >50 µg/mL | MIC [1, 3]: 3.13 µg/mL | MIC ([1]; LYM broth, 0.5 mM MgCl2): 3.13 µg/mL | MIC ([1]; LYM broth, 1.5 mM MgCl2): 6.25 µg/mL | MIC ([1]; LYM broth, 2.5 mM MgCl2): 12.5 µg/mL | MIC [1, 4]: 6.25 µg/mL | MIC [1, 5]: 25 µg/mL | MIC [1, 6]: 50 µg/mL | MIC [1, 7]: >50 µg/mL | MIC ([1]; LYM broth, pH 4.5): 6.25 µg/mL | MIC ([1]; LYM broth, pH 5.5): 3.13 µg/mL | MIC ([1]; LYM broth, pH 6.5): 3.13 µg/mL | MIC [1, 8]: 25 µg/mL | GM G−/+ (geometric mean of the MIC values) [2]: 61.6 µg/mL | Therapeutic Index (TI) G−/+ [2]: 1.8
